Patent publication US4377587A, “Arylamine derivatives and use thereof as microbicides” (Ciba-Geigy Corporation, priority 1980, dated 1983)
≈ marks a conversion by molar mass, not a printed value.

What was measured:
Pythium debaryanum [1] = test: Action on Pythium debaryanum on sugar beets, (a) after soil application; assay type: in vivo; conditions: sugar beet, 20 ppm of active ingredient based on volume of soil, 2-3 weeks at 20°-24° C.
Source text: (§1) Action on Pythium debaryanum on sugar beets
(a) Action after soil application
The fungus is cultivated on carrot chips nutrient solution and added to a mixture of earth and sand. Flower pots are filled with the infected soil, in which sugar beet seeds are then sown. Immediately after sowing, the test preparations formulated as wettable powders are poured in the form of aqueous suspensions over the soil (20 ppm of active ingredient, based on the volume of the soil). The pots are then stood for 2-3 weeks in a greenhouse at 20°-24° C. The soil is kept uniformly moist by gently spraying it with water. The emergence of the sugar beet plants as well as the number of healthy and sick plants are ascertained in evaluating the test.

Phytophthora infestans [2] = assay type: in vivo, Phytophthora infestans (on tomato plants); conditions: tomato, sprayed 0.06% active ingredient 22 hours after infestation, evaluated 5 days after infestation
Phytophthora infestans [3] = assay type: in vivo, Phytophthora infestans (on tomato plants); conditions: tomato, spray 0.06% active ingredient, infested after 24 hours, evaluated after 5 days at 20° C.
Pythium debaryanum [4] = test: Action on Pythium debaryanum on sugar beets, (b) after seed dressing application; assay type: in vivo; conditions: sugar beet, seed dressing 0.06%, 2-3 weeks at c. 20° C.
Procedure: as §1
(b) Action after seed dressing application
The fungus is cultivated on carrot chip nutrient solution and added to a mixture of earth and sand. Flower pots are filled with the infected soil and sugar beet seeds which have been treated with the test preparations formulated as seed dressing powders are sown therein (0.06% of one of the compounds of Tables 1 and 2). The pots are then stood in a greenhouse for 2-3 weeks at c. 20° C. The soil is kept uniformly moist by gently spraying it with water. The emergence of the sugar beet plants is ascertained in evaluating the test.

Erysiphe graminis = test: Action against Erysiphe graminis on barley, residual protective action; assay type: in vivo, Erysiphe graminis (on barley plants); conditions: 0.02% active ingredient sprayed, infected after 3-4 hours, evaluated after 10 days
Procedure: Action against Erysiphe graminis on barley
Residual protective action
Barley plants about 8 cm in height are sprayed with a spray mixture (0.02% of active ingredient) prepared from the active ingredient formulated as a wettable powder. The treated plants are dusted with conidia of the fungus after 3-4 hours. The infected barley plants are then stood in a greenhouse at about 22° C. The extent of the fungus infection is evaluated after 10 days.

Water solubility = assay type: physicochemical; conditions: 25° C.
Source text: Determination of physico-chemical data
(a) Reduced water solubility

Podosphaera leucotricha = test: Residual-protective action against Podosphaera leucotricha on apples; assay type: in vivo; conditions: apple seedlings, spray 0.06% of active ingredient, evaluated 12 days after infection
Procedure: Residual-protective action against Podosphaera leucotricha on apples
Apple seedlings in the 5-leaf stage are sprayed with a spray mixture (0.06% of active ingredient) prepared from a wettable powder formulation of the active ingredient. After 24 hours the treated plants are infected with a conidia suspension of the fungus and placed in a climatic chamber at 70% relative humidity and 20° C. Evaluation of fungus infestation is made 12 days after infection.

Compound	emergent plants (fully effective against Pythium pathogens), soil application (Pythium debaryanum [1])	fungus attack compared with untreated and infected control plants (100% attack), residual curative (Phytophthora infestans [2])	fungus attack compared with untreated control plants (100% attack), residual-protective (Phytophthora infestans [3])	emergent plants (fully effective against Pythium pathogens), seed dressing application (Pythium debaryanum [4])	also measured
COCC(=O)N(c1c([N+](=O)[O-])ccc2ccccc12)C(C)C(=O)OC (stereo not shown) [Compound 400, N-(1'methoxycarbonylethyl)-N-methoxyacetyl-2-nitronaphthylamine]	over 90%	less than 10%	less than 10%	over 90%	
CCOCC(=O)N(c1cccc([N+](=O)[O-])c1C)C(C)C(=O)OC (stereo not shown) [Compound 104]					fungus attack compared with control plants (100% attack) (Erysiphe graminis): less than 10%
COC(=O)C(C)N(C(=O)C1CCCO1)c1c(C)cc([N+](=O)[O-])c2ccccc12 (stereo not shown) [Compound 607]	over 90%		less than 10%	over 90%	
COCC(=O)N(c1c(C)cc(C)c([N+](=O)[O-])c1C)C(C)C(=O)OC (stereo not shown) [Compound 29]	over 90%	less than 10%	less than 10%	over 90%	
COCC(=O)N(c1c(C)cccc1C)[C@@H](C)C(=O)OC [Metalaxyl, N-(2,6-dimethylphenyl)-N-(2'-methoxyacetyl)alanine methyl ester, reference compound]					solubility (Water solubility): 800 µg/mL (≈ 2860 µM)
COC(=O)C(C)N(C(=O)C1CCCO1)c1c(C)c(C)c([N+](=O)[O-])c(C)c1C (stereo not shown) [Compound 144]			less than 10%		
COCC(=O)N(c1c(Cl)cccc1[N+](=O)[O-])C(C)C(=O)OC (stereo not shown) [Compound 57]			less than 10%		
CCOCC(=O)N(c1c(C)ccc([N+](=O)[O-])c1C)C(C)C(=O)OC(C)C (stereo not shown) [Compound 73]	over 90%		less than 10%	over 90%	fungus attack compared with untreated and infected control seedlings (100% attack) (Podosphaera leucotricha): less than 10%
COC(=O)C(C)N(C(=O)C1CC1)c1ccc([N+](=O)[O-])cc1Cl (stereo not shown) [Compound 138]			less than 10%		
C#CCN(C(=O)COC)c1c(C)ccc([N+](=O)[O-])c1C [Compound 117]			less than 10%		
COCC(=O)N(c1c([N+](=O)[O-])ccc(C)c1C)C(C)C(=O)OC (stereo not shown) [Compound 59, N-(1'methoxycarbonylethyl)-N-methoxyacetyl-2,3-dimethyl-6-nitroaniline]	over 90%	less than 10%	less than 10%	over 90%	
CCOCC(=O)N(c1c(C)c(C)c([N+](=O)[O-])c(C)c1C)C(C)C(=O)OC (stereo not shown) [Compound 142]		less than 10%	less than 10%		fungus attack compared with control plants (100% attack) (Erysiphe graminis): less than 10%
C=CCN(C(=O)COC)c1c(C)ccc([N+](=O)[O-])c1C [Compound 111]			less than 10%		
COCC(=O)N(c1ccc([N+](=O)[O-])c2ccccc12)C(C)C(=O)OC (stereo not shown) [Compound 611]		less than 10%	less than 10%		
COCC(=O)N(c1c(N)cccc1Cl)C(C)C(=O)OC (stereo not shown) [Compound 6]	over 90%	less than 10%	less than 10%	over 90%	fungus attack compared with untreated and infected control seedlings (100% attack) (Podosphaera leucotricha): less than 10%
CCOCC(=O)N(c1c(Cl)ccc(N)c1C)C(C)C(=O)OC (stereo not shown) [Compound 88]			less than 10%		
COC(=O)C(C)N(C(=O)C1CCCO1)c1c(C)c(C)c(N)c(C)c1C (stereo not shown) [Compound 161]		less than 10%	less than 10%		
COC(=O)C(C)N(C(=O)C1CC1)c1ccc(N)cc1Cl (stereo not shown) [Compound 139]			less than 10%		
COC(=O)C(C)N(C(=O)C1CCCO1)c1c(C)ccc([N+](=O)[O-])c1C (stereo not shown) [Compound 35]			less than 10%		
COCC(=O)N(c1c(C)c(C)c(N)c(C)c1C)C(C)C(=O)OC (stereo not shown) [Compound 158]	over 90%		less than 10%	over 90%	
COCC(=O)N(c1c(C)cc([N+](=O)[O-])c2ccccc12)C(C)C(=O)OC (stereo not shown) [Compound 606]	over 90%	less than 10%	less than 10%	over 90%	fungus attack compared with untreated and infected control seedlings (100% attack) (Podosphaera leucotricha): less than 10%
CCOC(=O)C(C)N(C(=O)COC)c1c(C)ccc([N+](=O)[O-])c1C (stereo not shown) [Compound 74]		less than 10%	less than 10%		
COCC(=O)N(c1c(C)c(C)c([N+](=O)[O-])c(C)c1C)C(C)C(=O)OC (stereo not shown) [Compound 141]		less than 10%	less than 10%		
COC(=O)C(C)N(C(=O)COC(C)C)c1c(C)c(C)c(N)c(C)c1C (stereo not shown) [Compound 160]	over 90%			over 90%	
C#CCN(C(=O)COCC)c1c(C)ccc([N+](=O)[O-])c1C [Compound 122]			less than 10%		
COC(=O)C(C)N(C(=O)CS(C)(=O)=O)c1c(C)ccc([N+](=O)[O-])c1C (stereo not shown) [Compound 38]			less than 10%		fungus attack compared with control plants (100% attack) (Erysiphe graminis): less than 10%
CCOCC(=O)N(c1c(C)c(C)c(N)c(C)c1C)C(C)C(=O)OC (stereo not shown) [Compound 159]			less than 10%		
COCC(=O)N(c1c(C)cc([N+](=O)[O-])c(C)c1C)C(C)C(=O)OC (stereo not shown) [Compound 78]			less than 10%		
COC(=O)C(C)N(C(=O)CS(C)(=O)=O)c1c(C)ccc(N)c1C (stereo not shown) [Compound 14]			less than 10%		
